Paper PMC7397269, “Synthesis and Evaluation of New Coumarin Derivatives as Antioxidant, Antimicrobial, and Anti-Inflammatory Agents” (Molecules, 2020)
Values after ≈ are worked out from the molar mass of the structure shown. Values joined by “and” are separate entries in the source; they are usually repeats but may differ in a detail not shown here. Equal entries are not always repeated. Where two headings read alike, the source gives them in different places.

Legend:
[1] = target: T1, COX-1 (Homo sapiens, UniProt P23219); test: COX-1 inhibition, Cayman assay kit; format: biochemical; conditions: mean of two determinations
T1 construct: purchased Cayman Chemical 701070
T1 sequence (P23219 24-599): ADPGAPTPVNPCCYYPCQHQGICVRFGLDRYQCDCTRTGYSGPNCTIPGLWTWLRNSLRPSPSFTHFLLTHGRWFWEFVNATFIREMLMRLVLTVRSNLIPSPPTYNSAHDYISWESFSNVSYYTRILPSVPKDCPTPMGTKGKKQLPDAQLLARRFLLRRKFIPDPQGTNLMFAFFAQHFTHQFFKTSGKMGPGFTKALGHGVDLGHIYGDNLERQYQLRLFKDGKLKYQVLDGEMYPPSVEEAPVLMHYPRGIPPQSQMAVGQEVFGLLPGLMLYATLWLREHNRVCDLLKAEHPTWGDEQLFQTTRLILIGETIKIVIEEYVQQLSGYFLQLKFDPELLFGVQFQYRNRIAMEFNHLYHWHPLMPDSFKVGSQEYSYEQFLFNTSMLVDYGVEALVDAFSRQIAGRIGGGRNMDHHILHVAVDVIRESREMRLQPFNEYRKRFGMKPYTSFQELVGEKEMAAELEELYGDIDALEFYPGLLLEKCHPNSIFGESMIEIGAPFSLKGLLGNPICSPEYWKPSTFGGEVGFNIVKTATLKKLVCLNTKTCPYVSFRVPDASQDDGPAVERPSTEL

[2] = DPPH antioxidant assay (radical scavenging); format: biochemical; conditions: mean ± SD (n = 3)
Method: The antioxidant effects of the synthesised compounds were assessed using the 2,2-diphenyl-1-picrylhydrazyl (DPPH) antioxidant assay. Table 1 summarises the antioxidant effects of the test samples and ascorbic acid except for compound 5b because it was produced in poor yield.
The radical scavenging activity of the synthesised compounds was measured using the DPPH microplate-based method. The absorbance was measured using a microplate/cuvette reader (Spectramax M5, Molecular Devices, San Jose, CA, USA). Reference standard ascorbic acid was utilised as the positive control for this assay. Test samples were prepared at a starting concentration of 200 μg/mL after mixing with 100 μL of 0.2 mM DPPH methanolic solution. […] Samples were incubated with DPPH in the dark for 30 min at room temperature (25 °C). The methanolic DPPH solution was prepared daily and stored in a flask covered with aluminium foil. DPPH radicals have an absorption maximum (λmax) at 515 nm, at which the absorbance values were measured and converted into a percentage of antioxidant activity.
The methanolic DPPH solution without antioxidants was used as a control, and samples in methanol alone served as a background control. IC50 was determined using GraphPad Prism 7 (GraphPad Software Inc., San Diego, CA, USA). The percent inhibition was calculated using the following Equation (1):(1) % Inhibition=100−Sample Absorbance −Sample background Absorbance/DPPH only Absorbance×100
The assay was carried out in triplicate and performed as much as possible in an area protected against light. The data points are presented as the mean ± standard deviation (SD, n = 3).

[3] = tested on: Escherichia coli ATCC 2592; test: Agar well diffusion, E. coli; format: cell-based; conditions: ATCC2592, 100 μL of 10 mg/mL in DMSO, read-out: diameter of inhibition zone, EC
Excerpt: (§1) The new molecules were individually tested for their antimicrobial activity in vitro against standard bacteria strains from the American Type Culture Collection (ATCC), namely, Staphylococcus aureus ATCC 29213, Bacillus subtilis ATCC 6633, Bacillus megaterium ATCC 9885 (Gram-positive), Escherichia coli ATCC 2592, and Pseudomonas aeruginosa ATCC 27,953 (Gram-negative). The compounds were also microbiologically tested against locally isolated Saccharomyces cerevisiae (yeast) and the standard Agricultural Research Service Culture Collection (NRRL) strain of the yeast-like pathogenic fungus Candida albicans NRRL Y-477. Primary screening was conducted using the agar well diffusion method using nutrient agar (NA) medium and Sabourand dextrose agar (SDA) medium for the tested pathological bacteria and yeast, respectively. […].
(§2) Antimicrobial tests were conducted via the agar well diffusion method using 100 μL of suspension containing 1 × 10^8 CFU/mL pathological tested bacteria and 1 × 10^6 CFU/mL yeast spread on NA and SDA, respectively. After the media cooled and solidified, wells (10 mm in diameter) were made in the solidified agar and loaded with 100 μL of the tested compound solution prepared by dissolving 10 mg of the chemical compound in 1 mL dimethyl sulfoxide (DMSO). The inoculated plates were then incubated for 24 h at 37 °C for bacteria and yeast growth. DMSO served as negative control. Ciprofloxacin (10 mg/mL) and ketoconazole (10 mg/mL) were used as standards for antibacterial and antifungal activity, respectively. After incubation, antimicrobial activity was evaluated by measuring the zone of inhibition against the test organisms and compared with that of the standard. Antimicrobial activities were expressed as the diameter of the inhibition zone (IZ) in mm. The experiment was carried out in triplicate and the average zone of inhibition was calculated.

[4] = tested on: Saccharomyces cerevisiae local isolate; test: Agar well diffusion, S. cerevisiae; format: cell-based; conditions: read-out: diameter of inhibition zone, SC
Excerpt: as §1, §2

[5] = tested on: Staphylococcus aureus ATCC 29213; test: Agar well diffusion, S. aureus; format: cell-based; conditions: ATCC29213, 100 μL of 10 mg/mL in DMSO, read-out: diameter of inhibition zone, SA
Excerpt: as §1, §2

[6] = target: T2, COX-2 (Homo sapiens, UniProt P35354); test: COX-2 inhibition, Cayman assay kit; format: biochemical; conditions: for IC50: mean of two determinations; for SI, selectivity index (COX-1/COX-2): ratio of COX-1/COX-2 IC50
T2 construct: purchased Cayman Chemical 701080
T2 sequence (P35354 18-604): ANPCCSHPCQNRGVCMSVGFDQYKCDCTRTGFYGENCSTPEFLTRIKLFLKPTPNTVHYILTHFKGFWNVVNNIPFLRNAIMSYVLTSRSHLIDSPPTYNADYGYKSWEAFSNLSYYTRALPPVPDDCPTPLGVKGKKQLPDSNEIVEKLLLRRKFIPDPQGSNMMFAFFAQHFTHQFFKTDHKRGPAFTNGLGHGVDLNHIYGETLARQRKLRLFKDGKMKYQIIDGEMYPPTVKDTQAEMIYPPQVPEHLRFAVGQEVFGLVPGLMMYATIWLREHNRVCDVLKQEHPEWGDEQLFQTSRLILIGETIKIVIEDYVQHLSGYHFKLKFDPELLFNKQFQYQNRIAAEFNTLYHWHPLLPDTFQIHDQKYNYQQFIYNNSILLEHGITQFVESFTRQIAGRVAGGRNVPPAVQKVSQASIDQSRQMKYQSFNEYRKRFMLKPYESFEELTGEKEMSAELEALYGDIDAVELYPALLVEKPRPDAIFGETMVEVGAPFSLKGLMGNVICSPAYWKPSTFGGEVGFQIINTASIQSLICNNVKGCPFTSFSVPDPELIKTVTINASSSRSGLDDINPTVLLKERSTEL

[7] = tested on: Candida albicans NRRL Y-477; test: Agar well diffusion, C. albicans; format: cell-based; conditions: NRRLY477, 100 μL of 10 mg/mL in DMSO, read-out: diameter of inhibition zone, CA
Excerpt: as §1, §2

[8] = tested on: Pseudomonas aeruginosa ATCC 27,953; test: Agar well diffusion, P. aeruginosa; format: cell-based; conditions: ATCC27, 100 μL of 10 mg/mL in DMSO, read-out: diameter of inhibition zone, PA
Excerpt: as §1, §2

[9] = tested on: Bacillus megaterium ATCC 9885; test: Agar well diffusion, B. megaterium; format: cell-based; conditions: Priestia megaterium, ATCC9885, 100 μL of 10 mg/mL in DMSO, read-out: diameter of inhibition zone, BM
Excerpt: as §1, §2

[10] = tested on: trypsin; test: Proteinase-inhibitory activity; format: biochemical; conditions: 250 µg/mL; mean ± SD (n = 3)
Method: The newly synthesised compounds were individually tested for their in vitro anti-inflammatory activity against proteinase enzyme. […] This test was performed at the Pharmacology Department, Medical Research Division, National Research Centre, Cairo, Egypt. Furthermore, compounds 2–8 were evaluated for their COX1/COX2 inhibitory activities.
The test was performed according to El-Serwy et al. with minor modifications. The reaction mixture (2 mL) contained 0.06 mg trypsin, 20 mM Tris HCl buffer (pH 7.4), and 1 mL test sample (250 µg/mL for each compound). After incubating for 5 min, 1 mL of 0.8% (w/v) casein was added. The mixture was incubated for an additional 20 min. The reaction was arrested by adding 1 mL of 10% perchloric acid. The cloudy suspension was centrifuged, and the absorbance of the supernatant was read at 280 nm. Reference standard aspirin was used as the positive control. The experiment was performed in triplicate. The percent inhibition of protein denaturation was calculated using the following Equation (2):(2) % Inhibition=100−A control −A test/A control×100 where Acontrol and Atest represent the absorbance of the control reaction without and with the sample, respectively.

[11] = tested on: Bacillus subtilis ATCC 6633; test: Agar well diffusion, B. subtilis; format: cell-based; conditions: ATCC6633, 100 μL of 10 mg/mL in DMSO, read-out: diameter of inhibition zone, BS
Excerpt: as §1, §2

[12] = well diffusion, 100 μL of 10 mg/mL in DMSO, S. cerevisiae

| SMILES | IC50 [1] [µM] | melting point [°C] | IC50 [2] | zone of inhibition at 10000 µg/mL [3] [mm] | zone of inhibition at 10000 µg/mL [4] [mm] | zone of inhibition at 10000 µg/mL [5] [mm] | IC50 [6] [µM] | SI, selectivity index (COX-1/COX-2) [6] | zone of inhibition at 10000 µg/mL [7] [mm] | zone of inhibition at 10000 µg/mL [8] [mm] | zone of inhibition at 10000 µg/mL [9] [mm] | % Inhibition (proteinase) [10] [%] | zone of inhibition at 10000 µg/mL [11] [mm] | zone of inhibition at 10000 µg/mL [4, 12] [mm] |
| --- | --- | --- | --- | --- | --- | --- | --- | --- | --- | --- | --- | --- | --- | --- |
| Cc1ccc2oc(=O)c3c(c2c1)OC(/N=C/N(C)C)=C(C#N)C3c1ccco1 (racemic) [4b, (±)-N′-(3-cyano-4-(furan-2-yl)-9-methyl-5-oxo-4H,5H-pyrano[3,2-c]chromen-2-yl)-N,N-dimethylformimidamide] | 57.5 | 273 to 275 | — ((—): inactive (IC50 > 200 μg/mL)) | 15 | < 15 | 16 | 25.2 | 2.28 | < 15 | 15 | < 15 | 33.17 ± 2.79 | < 15 |  |
| CC(=O)c1ccc(NS(=O)(=O)c2c(O)c3cc(Cl)ccc3oc2=O)cc1 [8e, N-(4-acetylphenyl)-6-chloro-4-hydroxy-2-oxo-2H-chromene-3-sulfonamide] | 19.9 | 238 to 240 | 32.85 ± 1.322 µg/mL (≈ 83.4 µM) | < 15 |  | < 15 | 9.22 | 2.2 and 2.16 | < 15 | < 15 | 16 | 18.5 ± 3.47 | 15 | < 15 |
| O=C1O[C@H]([C@@H](O)CO)C(O)=C1O [Ascorbic acid, reference compound] |  |  | 2.83 ± 0.166 µg/mL (≈ 16.1 µM) |  |  |  |  |  |  |  |  |  |  |  |
| Cc1ccc2oc(=O)c3c(c2c1)OC(/N=C/N(C)C)=C(C#N)C3c1ccc([N+](=O)[O-])cc1 (racemic) [4a, (±)-N′-(3-cyano-9-methyl-4-(4-nitrophenyl)-5-oxo-4H,5H-pyrano[3,2-c]chromen-2-yl)-N,N-dimethylformimidamide] | 12.5 | 279 to 281 | — ((—): inactive (IC50 > 200 μg/mL)) | < 15 | < 15 | 16 | 7.99 | 1.56 | < 15 | < 15 | < 15 | 31.99 ± 2.45 | < 15 |  |
| Cc1ccc2oc(=O)c3c(c2c1)OC(/N=C/c1ccccc1)=C(C#N)C3c1ccco1 (racemic) [5b, (±)-2-(benzylideneamino)-4-(furan-2-yl)-9-methyl-5-oxo-4H,5H-pyrano[3,2-c]chromene-3-carbonitrile] | 215 | 250 to 252 |  |  |  |  | 19.6 | 10.9 and 10.97 |  |  |  |  |  |  |
| CC(=O)Oc1ccccc1C(=O)O [Aspirin, reference compound] |  |  |  |  |  |  |  |  |  |  |  | 45.83 ± 4.21 |  |  |
| CC(=O)c1ccc(NS(=O)(=O)c2c(O)c3cc(C)ccc3oc2=O)cc1 [8f, N-(4-acetylphenyl)-4-hydroxy-6-methyl-2-oxo-2H-chromene-3-sulfonamide] | 7.92 | 231 to 232 | 35.36 ± 3.265 µg/mL (≈ 94.7 µM) | < 15 |  | 16 | 25.7 | 0.3 and 0.31 | < 15 | < 15 | 15 | 2.0 ± 1.4 | 15 | < 15 |
